Experimental data as given in US11634688B2, “Methods and compositions for inducing hematopoietic cell differentiation” (FATE THERAPEUTICS, INC., priority 2015, dated 2023).

Tests used:
[1] = test system: hiPSCs; test: generation of CD34+ HE from hiPSC monolayer differentiation, flow cytometry at about D10; type: cell-based, human
Description: The above iHSC platform was further optimized for hematopoietic lineage cells differentiation. To initiate differentiation towards the hematopoietic lineage, hiPSCs were seeded as a monolayer on Day (D) 0 in the maintenance medium and allowed to adhere and expand for about 24 hours. At this point, the maintenance medium was removed and replaced with base medium without maintenance factors at D1. Hematopoietic differentiation was initiated at around D2 by switching the culture medium to iCD34-A (see FIG. 12). […] The monolayers were maintained until around D5-D6 at which point they were dissociated into single cells and seeded as a low density monolayer in iCD34-C medium until differentiation around D10. Low oxygen tension (2-10% O2) was maintained from the onset of hematopoietic differentiation around D2 up until around D10 of differentiation.
During the culture process, the directed differentiation towards the hematopoietic lineage was monitored by the dissociation of the monolayers into single cells and analysis for the surface marker expression of CD34, and optionally, CD43, CD45, CXCR4 and CD73 (FIG. 15A). At around D8 of differentiation, the appearance of a cell population representing HE was observed by the cell surface expression signature CD34+. CD43−CXCR4−CD73− was also observed in the CD34+ cells. The CD34+ population was maintained until around D10 (FIG. 15A). At D10, which time point can be shortened to about D9 or extended until about D12, the cells were dissociated into single cells and the CD34+ HE population was sorted by FACS using a BD FACS Aria for further analysis and functional assessment. […]
To optimize the efficient generation of HE from hiPSCs after around 10 days of differentiation several parameters were examined. The optimal plating density of the monolayers at DO of differentiation was assessed by plating increasing amounts of hiPSCs from 7.5×10^4/well to 1.5×10^5/well on matrigel™-coated 6 well culture dishes and then analyzing the generation of the CD34+ HE population at about D10. […]
The effect of the concentration of BMP4 modulation during the initial stages of hematopoietic differentiation on the generation of HE was assessed by treating the cultures with increasing concentrations of BMP4 ranging from 0 ng/ml to 30 ng/ml from about D2 to about D6 of differentiation. The generation of HE at D10 was assessed by the detection of the CD34+ HE population.
The Wnt pathway activator CHIR99021 is responsible for the induction of the definitive hematopoetic program from hiPSCs. The effect of the modulation of CHIR during the induction phase of the hematopoietic differentiation protocol was assessed by treating the cultures with increasing concentrations of CHIR from about D3.75 to about D6. […]

[2] = test system: Day 10 CD34+ iHE sorted cells; test: stromal-free NK cell differentiation on plate-bound DLL4, hiPSC-derived iHE; type: cell-based, human; settings: plate bound DLL4 vs control protein; CD45+ gating
[3] = test system: umbilical cord blood CD34+ cells; test: stromal-free NK cell differentiation on plate-bound DLL4, umbilical cord blood CD34+ cells; settings: plate-bound DLL4 vs stromal-based and stromal-free control cultures; 10-15 days
Description: Specific to NK cells, enriched umbilical cord blood CD34+ cells were plated in iNK-A serum-free differentiation media containing SCF, Flt3L, IL3, IL15 and IL7 in culture plates containing DLL4 protein or control protein. After 5 days the iNK-B medium was maintained to complete NK cell differentiation. After approximately 10-15 days of culture, the culture was assessed for the generation of NK cell progenitors and the absence of myeloid cells. CD56, CD7 and CD161 are the first cell surface markers to be expressed during NK cell development. CD11b and CD14 are cell surface markers expressed on myeloid cell subsets. FIG. 29 depicts stromal-free differentiation of umbilical cord blood CD34+ cells towards NK cells. […] Early NK lineage markers identify the presence of proNK cells as defined by CD56, CD7 and CD161 and the absence of myeloid markers CD11b and CD14.

[4] = CHIR from about D3.75 to about D6

Cc1c[nH]c(-c2cnc(NCCNc3ccc(C#N)cn3)nc2-c2ccc(Cl)cc2Cl)n1 [CHIR99021, reference compound]
effect of increasing CHIR99021 concentration on percentage of HE subpopulation [1, 4]: decreases the percentage of the HE subpopulation
effect of increasing CHIR99021 concentration on total percentage of CD34+ cells [1, 4]: increases the total percentage of CD34+ cells

IGF1: insulin-like growth factor 1
effect of addition of IGF1 and EPO on percentage of HE at around D10 ([1]; IGF1 and EPO added together at Day 8): decreases the percentage of HE

DLL4: Notch activator, plate-bound DLL4 protein
differentiation of NK cell progenitors and myeloid cells [2]: supports the differentiation of CD56+CD7+CD161+ NK cell progenitors but not CD11b+myeloid cells
differentiation of CD56+CD7+CD161+ NK cell progenitors [3]: supports a more rapid and efficient differentiation of CD56+CD7+CD161+ NK cell progenitors

B1: BMP4: bone morphogenetic protein, BMP pathway activator (protein, UniProt P12644 293-408, looked up)
Bone morphogenetic protein 4: SPKHHSQRARKKNKNCRRHSLYVDFSDVGWNDWIVAPPGYQAFYCHGDCPFPLADHLNSTNHAIVQTLVNSVNSSIPKACCVPTELSAISMLYLDEYDKVVLKNYQEMVVEGCGCR
optimal concentration of BMP4 for HE population at D10 ([1]; BMP4 0 ng/ml to 30 ng/ml from about D2 to about D6, CD34+ HE at D10): about 3 ng/mL
